The values below are quoted from earlier work in patent US6689455B2, “Method of producing hexagonal ferrite and magnetic recording medium using said hexagonal ferrite” (Fuji Photo Film Co., Ltd., priority 2001, dated 2004).

For this data set the following is noted: for pKa: value in parentheses after the compound name, acetic acid: 2 mol/l aqueous solution; for Organic matter pKa value: organic matter used to treat the ferrite powder, Tables 1 and 2; for pKa1: first dissociation of dicarboxylic acids.

For orientation: pKa means the pH at which an ionisable group is half protonated. Consider `O=S(=O)(O)c1ccccc1` [benzenesulfonic acid], for which the pKa is 2.55.

As for `O=C(NO)c1ccccc1` [benzohydroxamic acid], the pKa is recorded as 2.3.

Regarding `O=P([O-])([O-])CN(CCN(CCN(CP(=O)([O-])[O-])CP(=O)([O-])O)CP(=O)([O-])O)CP(=O)([O-])O.[Na+].[Na+].[Na+].[Na+].[Na+].[Na+].[Na+]` [heptasodium diethylenetriamine-pentamethylene phosphonate], the “Organic matter pKa value” is recorded as 1.8.

Consider `O=P(O)(O)Oc1ccccc1` [phenoxyphosphonic acid], for which the “Organic matter pKa value” was 2.0 and the pKa is on record as 1.95.

Turning to `O=P(O)(O)c1ccccc1` [phenylphosphonic acid], the “Organic matter pKa value” is on record as 1.8 and the pKa is recorded as 1.8.

For the compound `O=C(O)c1ccccc1C(=O)O` [phthalic acid], the pKa1 is recorded as 2.75.

In the case of `NS(=O)(=O)O` [sulfaminic acid], the pKa is listed as 1.65.

In the case of `O=C(O)c1ccc(C(=O)O)cc1` [terephthalic acid], the pKa1 is listed as 3.54.
